Test results published in PubChem BioAssay (NCI).
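Compound exposure: 48 hours, 5 concentrations, 96-well plates. TGI: total growth inhibition.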

Experiments:
Assay in all cases: NCI anticancer screen, dose series, 48 h
COLO 205 colon = system: COLO 205 colon
SNB-19 CNS = system: SNB-19 CNS
NCI-H23 lung = system: NCI-H23 lung
DU-145 prostate = system: DU-145 prostate
MDA-MB-231 breast = system: MDA-MB-231 breast
HS 578T breast = system: HS 578T breast
K-562 leukemia = system: K-562 leukemia
HOP-92 NSCLC = system: HOP-92 NSCLC
A498 renal = system: A498 renal
OVCAR-3 ovarian = system: OVCAR-3 ovarian
SF-295 CNS = system: SF-295 CNS
CCRF-CEM leukemia = system: CCRF-CEM leukemia

Compound | TGI (COLO 205 colon) [µM] | TGI (SNB-19 CNS) [µM] | TGI (NCI-H23 lung) [µM] | TGI (DU-145 prostate) [µM] | TGI (MDA-MB-231 breast) [µM] | TGI (HS 578T breast) [µM] | TGI (K-562 leukemia) [µM] | TGI (HOP-92 NSCLC) [µM] | TGI (A498 renal) [µM] | TGI (OVCAR-3 ovarian) [µM] | TGI (SF-295 CNS) [µM] | TGI (CCRF-CEM leukemia) [µM]
N#C[C@H](c1nc2ccccc2[nH]1)c1nc2ccccc2nc1Cl | 40 | 38.8 | > 54.3 | 4.09 | 35.3 | > 100 | > 100 | > 75.6 | > 60.6 | > 100 | > 100 | 10.9
O=[N+]([O-])C(=C(\Cl)NCCO)/C(Cl)=C(/Cl)Br | 2.74 | 18 | 11.1 | 20.6 | 3.99 | 28 | 2.97 | 3.53 | 12 | 2.62 | 24.9 | 2.01
CCOC(=O)C1=CN(Cc2ccccc2)C2ON=C(c3ccc(Cl)cc3)C2C1 (stereo not drawn) | > 64.1 | > 100 | > 66.8 | > 70 | > 61.6 | 21.7 | > 100 | > 100 | > 56.8 | > 67.1 | > 67 | > 100
Cc1c(OCc2cccc3ccccc23)ccc2c(=O)cc(S)oc12 | > 100 | > 100 | 80.7 | > 100 | > 100 | > 100 | > 100 | 67.1 | > 100 | 53.6 | 88.7 | 54.1
COc1ccc(/C=C/C(=O)N[C@@H]2C(=O)N3[C@@H]2SC(C)(C)[C@@H]3C(=O)O)cc1OC | > 100 | > 100 | > 100 | > 100 | > 100 | > 100 | > 100 | > 100 | > 100 | > 100 | > 100 | > 100
C=CCOC1=C(OC(C)=O)C(C2COC(C)(C)O2)OC1=O (stereo not drawn) | 36.9 | > 100 | 35 | > 100 | 34.5 | > 100 | 35.9 | 34.5 | > 100 | 31.9 | > 100 | 41.7
FC(F)(F)c1ccc(N=NN2CCCC2)cc1 | > 100 | > 100 | > 100 | > 100 | > 100 | > 100 | > 100 | > 100 | > 100 | > 100 | > 100 | > 100
O=C(O)COc1cccc2ccccc(=O)c12 | > 100 | > 100 | > 100 | > 100 | > 100 | > 100 | > 100 | > 100 | > 100 | > 100 | > 100 | > 100
CCOC(=O)CCNC(=O)c1cc(C)cc2c1Oc1c(cc(C)cc1C(=O)NCCC(=O)OCC)S2 | > 100 | > 100 | > 100 | > 100 | > 100 | > 100 | > 100 | 87.8 | 90.8 | > 100 | > 100 | > 100
